# Results: patent US11767298B2, “Substituted benzimidazoles as inhibitors of transforming growth factor-β kinase” (Duke University, priority 2016, dated 2023)
# “And” between values parts separate entries of the source, which are not always exact repeats. Identical values can stand only once. Like-named read-outs stand apart in the source and are kept apart here.
# Legend:
# [1] = target: GFP-PfPK9 (Plasmodium falciparum, UniProt Q8IEG4); test: ATP-competitive binding assay (ATP-sepharose pull-down, FLECS)
# GFP-PfPK9, sequence (Q8IEG4 entry or part of it): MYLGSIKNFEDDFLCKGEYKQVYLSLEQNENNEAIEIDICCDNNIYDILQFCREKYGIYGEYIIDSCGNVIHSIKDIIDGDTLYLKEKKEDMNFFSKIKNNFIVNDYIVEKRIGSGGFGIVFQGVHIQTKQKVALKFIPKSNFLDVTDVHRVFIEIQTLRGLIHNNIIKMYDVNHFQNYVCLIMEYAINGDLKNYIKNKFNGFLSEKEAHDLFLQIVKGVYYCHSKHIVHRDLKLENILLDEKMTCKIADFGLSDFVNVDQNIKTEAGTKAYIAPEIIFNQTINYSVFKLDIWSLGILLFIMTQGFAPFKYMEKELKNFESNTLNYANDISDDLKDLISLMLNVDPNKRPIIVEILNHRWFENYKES
# Method: Primary small-molecule screen. A small-molecule screen was performed similar to a previously reported fluorescence linked enzyme chemoproteomic strategy (FLECS). Briefly, HEK293-GFP-PfPK9 cells were grown in 182-cm^2 tissue culture flasks (Genesee Scientific) and harvested at ˜80% cell confluency. Before assays the culture medium was aspirated, cells were rinsed with ice cold PBS and then they were removed with a cell scraper. Cells were pelleted by centrifugation (2,000 rpm, 4° C., 2 min) and immediately lysed for assays. The pellet was suspended in buffer A (25 mM HEPES, pH 7.4, 150 mM NaCl, 60 mM MgCl2, 1 mM DTT) with 1 μM microcystin, 0.1% Triton X-100 plus a Roche Complete protease inhibitor tablet and then placed on ice for 30 min to facilitate lysis. The supernatant was collected after centrifugation (4,300 rpm, 4° C., 5 min) and used in subsequent screening and titrations experiments. For screening, the supernatant was added to ATP-sepharose beads (1:1) and incubated with agitation at 4° C. for at least 1 hr to allow binding. Following this incubation, the mixture was centrifuged, the ATP resin was washed with 9 column volumes of buffer A with 1 M NaCl and then 9 column volumes of buffer A. The ATP-sepharose medium was reconstituted as a 1:1 slurry with buffer A and then added to 96-well filter plates (50 μL/well) (Corning #3505) using a multichannel pipette (Rainin). The filter plate was on top of black 96-well catch plates (Corning #3915). An ATP dilution series (1-200 mM) was added to each plate as a positive control and DMSO was the negative control. Compounds and controls were all added to 50 μL per well in buffer A. For screening, compounds were tested in singlicate at 500 μM. The final DMSO concentration in every well was 5%. The fluorescence intensity in each well was measured on an EnVision system. Data analyses of screens were carried out in EXCEL (Microsoft, Corp.) and actives were identified as 2×background signal.
# All screening positives that were verified with Western blot analysis were purchased from Enamine or Vitas-M laboratory. The purity of compounds 1-5 (shown below) was verified by high-resolution MS (Agilent). Compounds were tested in 8-point dose-response (0-500 μM) experiments in duplicate, essential as described above. The fluorescence intensity in each well was measured using an EnVision system. Dose-response analysis was performed with GraphPad Prism to acquire EC50 values. Determined EC50 values were used to calculate the observed PfPK9 Kd and reported values are the average of 2-3 independent experiments.
# Stable cell line generation. The P. falciparum PK9 gene (PlasmoDB accession #PF3D7_1315100) was cloned into the pEGFP-C1 mammalian expression vector (Clontech) in frame with a […] GFP tag. For screening, HEK293 cells were transfected with the resulting PfPK9-pEGFP-C1 vector to generate HEK293-GFP-PfPK9 expressing cells using X-tremeGENE HP transfection reagent (Roche) per the manufacturer instructions. Briefly, the culture medium was replaced at 48 hours post-transfection with medium supplemented with 1 mg/mL G418 sulfate (Life Technologies) to select for stably transfected cells. Following stable cell selection, fluorescence activated cell sorting (FACS) was used to enrich for GFP-PfPK9 expressing cells. Subsequently, FACS sorted HEK293-GFP-PfPK9 cells were cultured with medium supplemented with 0.5 mg/mL G418 sulfate for all following experiments. Protein expression was verified by Western blot analysis probing for anti-GFP and by fluorescence intensity using an EnVision (PerkinElmer) system.
# All 14 positive molecules were also tested for their binding affinity to PfPK9 using an optimized ATP-competitive binding assay. EC50 values ranging from low μM to low mM were observed and these EC50 values were used to derive dissociation constants as described previously. […]
# [2] = target: T1, TAK1-TAB1 (Homo sapiens, UniProt O43318); test: TAK1-TAB1 kinase assay ([32P]-ATP); type: biochemical; conditions: compared to 206 (FIG. 14)
# T1 sequence (O43318 with tags, fused parts or gaps limits assumed): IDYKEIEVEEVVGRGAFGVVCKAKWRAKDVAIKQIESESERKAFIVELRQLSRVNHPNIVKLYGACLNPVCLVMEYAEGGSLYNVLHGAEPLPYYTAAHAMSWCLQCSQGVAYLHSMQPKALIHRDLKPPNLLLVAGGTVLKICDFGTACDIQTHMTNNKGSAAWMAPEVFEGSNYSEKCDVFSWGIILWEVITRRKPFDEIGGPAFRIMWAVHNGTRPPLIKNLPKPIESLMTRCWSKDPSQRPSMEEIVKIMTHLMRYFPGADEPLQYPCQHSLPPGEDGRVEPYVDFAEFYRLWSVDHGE
# Method: Kinase Assay. […] In brief, TAK1-TAB1 (50 ng/well) was incubated with 5 μM ATP containing radiolabeled [^32P]-ATP in the presence of 300 μM substrate peptide ([…]) in a final volume of 40 μl in the presence of buffer (containing 50 mM Tris pH 7.5, 0.1 mM EGTA, 0.1% β-Mercaptoethanol, 10 mM magnesium acetate, 0.5 mM MnCl) and indicated compounds. The reaction was let go for 10 min and stopped with 10 μl concentrated H3PO4. The remaining activity was measured using a scintillation counter. Dose-response curves were repeated 3 times. For kinetic mechanistic studies, experiments were repeated two times and averaged.
# A challenge in designing chemical biology probes lies in choosing an appropriate ligand for a protein target and developing chemistry that allows attachment of a linker without disrupting activity of the ligand. […] The focus was on modifying the aminobenzimidazole moiety.
# [3] = tested on: P. berghei; test: Liver stage parasite load, luciferase-expressing P. berghei in HepG2 cells; type: cell-based, Plasmodium berghei ANKA; conditions: HepG2 host cells
# Method: (§1) Cell-based anti-Plasmodium assays. For liver stage assays, 15,000 HepG2 or 8,000 Huh7 cells/well were added to 384-well microtiter plates using a multichannel pipette (Rainin). After 2 hours at 37° C., compounds (0-100 μM) were added to cells in duplicate or triplicate in a final concentration of 1% DMSO. DMSO was used as the negative control. Following compound incubation at 37° C. for ˜1 hr, harvested luciferase-expressing P. berghei ANKA sporozoites were added to the plates at a density of 3,000 sporozoites/well. P. berghei ANKA sporozoites were obtained from harvesting the salivary glands of infected A. stephensi mosquitoes. The plates were spun for 10 min at 1,000 rpm, and then incubated at 37° C. for ˜45 hrs. […] After ˜45 hours at 37° C., liver cell viability was assessed using CellTiter-Fluor (Promega) and then parasite load was determined using Bright-Glo (Promega). The relative fluorescence and luminescence signal intensity of each well was evaluated with an EnVision System. The luminescence signal in the presence of compounds was normalized to the negative control (DMSO). Dose-response analysis was performed with GraphPad Prism to yield the reported EC50 values.
# (§2) Anti-Plasmodium activity was evaluated in the parasite's liver stage using a previously reported high-throughput assay. In this assay, luciferase-expressing P. berghei (murine) parasites are used to infect human hepatoma cells (HepG2) and parasite load is assessed with a luminometer subsequent to evaluating HepG2 viability using a commercially available quantification kit that measures intracellular protease activity.
# (§3) Specifically, their ability to inhibit P. berghei infection in two human hepatoma cell lines (HepG2 and Huh7) as well as cytotoxicity against HepG2 and Huh7 cells was determined as described above. Liver cell cytotoxicity was evaluated with two different commercially available assays, one that tests for intracellular protease activity with a fluorescence reporter and another that relies on the luminescent detection of total ATP.
# [4] = tested on: P. berghei; test: Liver stage parasite load, luciferase-expressing P. berghei in Huh7 cells; type: cell-based, Plasmodium berghei ANKA; conditions: Huh7 host cells, read-out: IC50 Liver state (Huh7)
# Method: as §1, §3
# [5] = tested on: HepG2 cells; test: HepG2 cell viability / cytotoxicity; type: cell-based, human
# Method: as §1, §2, §3
# [6] = tested on: Huh7 cells; test: Huh7 cell viability / cytotoxicity; type: cell-based, human
# Method: as §1, with “After 2 hours at 37° C., compounds (0-100 μM) were added to cells in duplicate or triplicate in a final concentration of 1% DMSO.” left out
# as §3
# [7] = GFP-PfPK9, Kd calculated from EC50 of ATP pull-down dose-response, read-out: Kd, app
# [8] = Plasmodium berghei, HepG2, parasite load
# [9] = Plasmodium berghei, Huh-7, parasite load
SMILES,activity / potency in TAK1 kinase assay [2],"Kd [1, 7]","IC50 [3, 8] [µM]","IC50 [4, 9] [µM]",other results
"Nc1ncnc2c1ncn2[C@@H]1O[C@H](COP(=O)(O)OP(=O)(O)OP(=O)(O)O)[C@@H](O)[C@H]1O [ATP, reference compound]",,,,,"Kd ([1]; native substrate, read-out: apparent Kd of ATP for GFP-PfPK9): ~400 µM"
NC(=O)c1cccc(C(=O)/N=c2\[nH]c3cc(Br)ccc3s2)c1 [HS-232],did not show activity,,,,
CCCn1/c(=N/C(=O)c2cccc(C(N)=O)c2)[nH]c2ccc(/C=C/C(=O)O)cc21 [HS-233],slight reduction in potency,,,,
CCCn1/c(=N/C(=O)c2cccc(C(N)=O)c2)[nH]c2cc(/C=C/C(=O)O)ccc21 [HS-234],slight reduction in potency,,,,
CCCn1/c(=N/C(=O)c2cccc(C(N)=O)c2)[nH]c2cc(/C=C/C(=O)OC)ccc21 [HS-235],slight reduction in potency,,,,
CCCn1c(NC(=O)c2nn(-c3ccccc3)cc2OC)nc2ccccc21 [compound 2],,~7 µM and 7 µM,4.5,0.09,"cytotoxic effect on cell viability vs DMSO control ([5]; HepG2, 30 μM): significant cytotoxic effect; cytotoxic effect on cell viability vs DMSO control ([6]; 30 μM): significant cytotoxic effect"
CCCn1c(NC(=O)c2cncn2-c2ccc(F)cc2)nc2ccccc21 [compound 3],,0.6 µM,7.3,4,cytotoxicity in HepG2 cells ([5]; concentration not given): moderate cytotoxicity
O=C(Nc1cccc2cnccc12)C1CCCN(c2cnccn2)C1 (stereo not drawn) [compound 4],,3.2 µM,55,33,"IC50 ([3]; parasite load): 54.5 µM; IC50 ([4]; parasite load): 33.3 µM; effect on liver cell viability ([5]; HepG2, concentrations up to 200 μM): neither compound 4 or 5 had any significant effects on cell viability; effect on liver cell viability ([6]; concentrations up to 200 μM): neither compound 4 or 5 had any significant effects on cell viability"
